Assay results reported in US20240270740A1, “INHIBITORS OF CYCLIC GMP-AMP SYNTHASE AND USES THEREOF” (Ventus Therapeutics U.S., Inc., priority 2022, published 2024).

How the values were obtained:
hcGAS [1] = target: T1, hcGAS (Homo sapiens, UniProt Q8N884); test: hcGAS Kinase-Glo assay (ATP depletion); format: biochemical; details: for IC50: 40 nM hcGAS, 100 μM ATP, 100 μM GTP, 25 nM dsDNA, 3 h incubation
Experimental: cGAS catalyzes the cyclization of ATP and GTP to produce cGAMP, which is the activating ligand of STING. Human cGAS (hcGAS) inhibition can thus be quantified by measuring how much cGAMP is formed either indirectly, by monitoring ATP-depletion as in the hcGAS Kinase-Glo assay (as described below), or directly, such as using the hcGAS LCMS assay (as described below).
(i) hcGAS Kinase-Glo Assay
Compounds were tested for their human-cGAS […] inhibition activity using the methodology reported in Lama et al., “Development of human cGAS-specific small molecule inhibitors for repression of dsDNA-triggered interferon expression”, Nature Communications 10, Article number: 2261 (2019), with slight changes to some conditions as shown in Table B.
The results of the assay, expressed in IC50 values, are reported in Table D with the following designations: A represents an IC50 value<0.01 μM; B represents an IC50 value≥0.01 μM and <0.03 μM; C represents an IC50 value≥0.03 μM and <0.1 μM; D represents an IC50 value≥0.1.

hcGAS [2] = target: T1, hcGAS; test: hcGAS LCMS assay (direct measurement of cGAMP production); format: biochemical; details: for IC50: 0.5 nM hcGAS, 100 μM ATP, 100 μM GTP, 25 nM dsDNA, 4 h incubation
How it was run: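 Direct LC/MS readout of cGAMP formed: 4-h enzyme–substrate incubation with compound, stopped by acetonitrile/water quench carrying isotope-labelled cGAMP (0.15 mM) as standard. Potency reported as IC50 ranges.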

[3] = compared with Compound 103 (without —CH2OCH3)

T1 sequence (Q8N884 whole entry): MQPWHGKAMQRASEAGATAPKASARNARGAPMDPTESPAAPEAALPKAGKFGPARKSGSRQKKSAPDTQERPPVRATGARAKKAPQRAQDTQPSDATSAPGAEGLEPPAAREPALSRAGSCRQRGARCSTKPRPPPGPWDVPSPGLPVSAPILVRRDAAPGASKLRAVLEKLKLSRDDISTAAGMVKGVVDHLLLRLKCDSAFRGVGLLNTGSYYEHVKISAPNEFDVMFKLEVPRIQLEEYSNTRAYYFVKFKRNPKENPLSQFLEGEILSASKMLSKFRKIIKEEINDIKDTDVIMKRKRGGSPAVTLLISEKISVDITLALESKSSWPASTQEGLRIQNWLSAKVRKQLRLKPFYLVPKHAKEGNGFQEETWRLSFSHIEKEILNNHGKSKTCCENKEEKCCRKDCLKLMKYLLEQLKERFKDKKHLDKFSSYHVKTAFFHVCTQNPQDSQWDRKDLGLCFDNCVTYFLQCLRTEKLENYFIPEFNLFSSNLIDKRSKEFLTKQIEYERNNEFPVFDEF

SMILES | IC50 (hcGAS [1]) [nM] | IC50 (hcGAS [2]) [nM] | inhibitory activity in hcGAS Kinase glo assay (hcGAS [1]; [3]) | inhibitory activity in hcGAS LCMS assay (hcGAS [2]; [3])
COCCNc1cc(C(=O)Nc2nnc(-n3nccc3C)s2)oc(=O)c1OC [Compound 75, 3-methoxy-4-((2-methoxyethyl)amino)-N-(5-(5-methyl-1H-pyrazol-1-yl)-1,3,4-thiadiazol-2-yl)-2-oxo-2H-pyran-6-carboxamide] | 30 to 100 | 5 to 20 | – | –
COc1c(N[C@@H]2CCOC2)cc(C(=O)Nc2nnc(-n3nccc3C)s2)oc1=O [Compound 184, (R)-3-methoxy-N-(5-(5-methyl-1H-pyrazol-1-yl)-1,3,4-thiadiazol-2-yl)-2-oxo-4-((tetrahydrofuran-3-yl)amino)-2H-pyran-6-carboxamide] | 30 to 100 | 20 to 60 | – | –
COc1c(N(C)C)cc(C(=O)Nc2nnc(-n3nccc3C)s2)oc1=O [Compound 106, 4-(dimethylamino)-3-methoxy-N-(5-(5-methyl-1H-pyrazol-1-yl)-1,3,4-thiadiazol-2-yl)-2-oxo-2H-pyran-6-carboxamide] | 30 to 100 | 20 to 60 | – | –
COCCNc1cc(C(=O)Nc2nnc(-c3c(Cl)ccn3C)s2)oc(=O)c1OC [Compound 127, N-(5-(3-chloro-1-methyl-1H-pyrrol-2-yl)-1,3,4-thiadiazol-2-yl)-3-methoxy-4-((2-methoxyethyl)amino)-2-oxo-2H-pyran-6-carboxamide] | 10 to 30 | < 5 | – | –
COc1c(NC2CCS(=O)(=O)CC2)cc(C(=O)Nc2nnc(-n3nccc3C)s2)oc1=O [Compound 29, 4-((1,1-dioxidotetrahydro-2H-thiopyran-4-yl)amino)-3-methoxy-N-(5-(5-methyl-1H-pyrazol-1-yl)-1,3,4-thiadiazol-2-yl)-2-oxo-2H-pyran-6-carboxamide] | 30 to 100 | – | – | –
COc1c(N[C@H]2C[C@@H](OC)C2)cc(C(=O)Nc2nnc(-n3nccc3C)s2)oc1=O [Compound 9, 3-methoxy-4-(((1,3-cis)-3-methoxycyclobutyl)amino)-N-(5-(5-methyl-1H-pyrazol-1-yl)-1,3,4-thiadiazol-2-yl)-2-oxo-2H-pyran-6-carboxamide] | 30 to 100 | – | – | –
COCCNc1cc(C(=O)Nc2nnc(-c3c(C)csc3C#N)s2)oc(=O)c1OC [Compound 137, N-(5-(2-cyano-4-methylthiophen-3-yl)-1,3,4-thiadiazol-2-yl)-3-methoxy-4-((2-methoxyethyl)amino)-2-oxo-2H-pyran-6-carboxamide] | ≥ 100 | – | – | –
COc1c(NCC(F)(F)F)cc(C(=O)Nc2nnc(-n3nccc3C)s2)oc1=O [Compound 90, 3-methoxy-N-(5-(5-methyl-1H-pyrazol-1-yl)-1,3,4-thiadiazol-2-yl)-2-oxo-4-((2,2,2-trifluoroethyl)amino)-2H-pyran-6-carboxamide] | 10 to 30 | – | – | –
COc1c(NC2COC2)cc(C(=O)Nc2nnc(-n3nccc3C)s2)oc1=O [Compound 104, 3-methoxy-N-(5-(5-methyl-1H-pyrazol-1-yl)-1,3,4-thiadiazol-2-yl)-4-(oxetan-3-ylamino)-2-oxo-2H-pyran-6-carboxamide] | 30 to 100 | – | – | –
COc1c(NC23CC(C#N)(C2)C3)cc(C(=O)Nc2nnc(-n3nccc3C)s2)oc1=O [Compound 45, 4-((3-cyanobicyclo[1.1.1]pentan-1-yl)amino)-3-methoxy-N-(5-(5-methyl-1H-pyrazol-1-yl)-1,3,4-thiadiazol-2-yl)-2-oxo-2H-pyran-6-carboxamide] | 10 to 30 | – | – | –
COCCN(CCOC)c1cc(C(=O)Nc2nnc(-n3nccc3C)s2)oc(=O)c1OC [Compound 63, 4-(bis(2-methoxyethyl)amino)-3-methoxy-N-(5-(5-methyl-1H-pyrazol-1-yl)-1,3,4-thiadiazol-2-yl)-2-oxo-2H-pyran-6-carboxamide] | ≥ 100 | – | – | –
COc1c(N2CC[C@H](CO)C2)cc(C(=O)Nc2nnc(-n3nccc3C)s2)oc1=O [Compound 58, (S)-4-(3-(hydroxymethyl)pyrrolidin-1-yl)-3-methoxy-N-(5-(5-methyl-1H-pyrazol-1-yl)-1,3,4-thiadiazol-2-yl)-2-oxo-2H-pyran-6-carboxamide] | 10 to 30 | – | – | –
COCC1CCN(c2cc(C(=O)Nc3nnc(-n4nccc4C)s3)oc(=O)c2OC)CC1 [Compound 2, 3-methoxy-4-(4-(methoxymethyl)piperidin-1-yl)-N-(5-(5-methyl-1H-pyrazol-1-yl)-1,3,4-thiadiazol-2-yl)-2-oxo-2H-pyran-6-carboxamide] | 10 to 30 | – | – | –
COc1c(N[C@H]2CCC[C@@H]2O)cc(C(=O)Nc2nnc(-n3nccc3C)s2)oc1=O (racemic) [Rac-15, 4-(((1S,2S)-2-hydroxycyclopentyl)amino)-3-methoxy-N-(5-(5-methyl-1H-pyrazol-1-yl)-1,3,4-thiadiazol-2-yl)-2-oxo-2H-pyran-6-carboxamide] | 30 to 100 | – | – | –

Second part, the compound after the results:

IC50 (hcGAS [1]) [nM] | IC50 (hcGAS [2]) [nM] | inhibitory activity in hcGAS Kinase glo assay (hcGAS [1]; [3]) | inhibitory activity in hcGAS LCMS assay (hcGAS [2]; [3]) | SMILES
< 10 | < 5 | – | – | COc1c(N[C@H]2CCC[C@H]2O)cc(C(=O)Nc2nnc(-c3c(Cl)ccn3C)s2)oc1=O (racemic) [Rac-188, N-(5-(3-chloro-1-methyl-1H-pyrrol-2-yl)-1,3,4-thiadiazol-2-yl)-4-(((1S,2R)-2-hydroxycyclopentyl)amino)-3-methoxy-2-oxo-2H-pyran-6-carboxamide]
< 10 | < 5 | improved inhibitory activity | improved inhibitory activity | COC[C@H](Nc1cc(C(=O)Nc2nnc(-n3nccc3C)s2)oc(=O)c1OC)c1ccccc1 [Compound 114, (R)-3-methoxy-4-((2-methoxy-1-phenylethyl)amino)-N-(5-(5-methyl-1H-pyrazol-1-yl)-1,3,4-thiadiazol-2-yl)-2-oxo-2H-pyran-6-carboxamide]
10 to 30 | 5 to 20 | – | – | COc1c(NC[C@H](C)OC)cc(C(=O)Nc2nnc(-n3nccc3C)s2)oc1=O [Compound 187, (S)-3-methoxy-4-((2-methoxypropyl)amino)-N-(5-(5-methyl-1H-pyrazol-1-yl)-1,3,4-thiadiazol-2-yl)-2-oxo-2H-pyran-6-carboxamide]
10 to 30 | 5 to 20 | – | – | COc1c(N[C@H]2CC[C@@H](O)C2)cc(C(=O)Nc2nnc(-n3nccc3C)s2)oc1=O (racemic) [Rac-61, 4-(((1S,3R)-3-hydroxycyclopentyl)amino)-3-methoxy-N-(5-(5-methyl-1H-pyrazol-1-yl)-1,3,4-thiadiazol-2-yl)-2-oxo-2H-pyran-6-carboxamide]
10 to 30 | 5 to 20 | – | – | COc1c(N2C[C@H](OC)[C@H](OC)C2)cc(C(=O)Nc2nnc(-n3nccc3C)s2)oc1=O [Compound 59, 4-((3S,4R)-3,4-dimethoxypyrrolidin-1-yl)-3-methoxy-N-R(5-(5-methyl-1H-pyrazol-1-yl)-1,3,4-thiadiazol-2-yl)-2-oxo-2H-pyran-6-carboxamide]
10 to 30 | 5 to 20 | – | – | COc1c(N2CC[C@@H](OC)C2)cc(C(=O)Nc2nnc(-n3nccc3C)s2)oc1=O [Compound 31, (R)-5-methoxy-4-(3-methoxypyrrolidin-1-yl)-N-(5-(5-methyl-1H-pyrazol-1-yl)-1,3,4-thiadiazol-2-yl)-6-oxo-6H-pyran-2-carboxamide]
10 to 30 | 5 to 20 | – | – | COC[C@H]1CCCN1c1cc(C(=O)Nc2nnc(-n3nccc3C)s2)oc(=O)c1OC [Compound 38, (R)-3-methoxy-4-(2-(methoxymethyl)pyrrolidin-1-yl)-N-(5-(5-methyl-1H-pyrazol-1-yl)-1,3,4-thiadiazol-2-yl)-2-oxo-2H-pyran-6-carboxamide]
10 to 30 | 5 to 20 | – | – | COc1c(N[C@H]2CCS(=O)(=O)C2)cc(C(=O)Nc2nnc(-n3nccc3C)s2)oc1=O [Compound 62, (S)-4-((1,1-dioxidotetrahydrothiophen-3-yl)amino)-3-methoxy-N-(5-(5-methyl-1H-pyrazol-1-yl)-1,3,4-thiadiazol-2-yl)-2-oxo-2H-pyran-6-carboxamide]
10 to 30 | 5 to 20 | – | – | COCCNc1cc(C(=O)Nc2nnc(-c3cscc3Cl)s2)oc(=O)c1OC [Compound 136, N-(5-(4-chlorothiophen-3-yl)-1,3,4-thiadiazol-2-yl)-3-methoxy-4-((2-methoxyethyl)amino)-2-oxo-2H-pyran-6-carboxamide]
10 to 30 | 5 to 20 | – | – | COc1c(NC23CC(CC#N)(C2)C3)cc(C(=O)Nc2nnc(-n3nccc3C)s2)oc1=O [Compound 116, 4-((3-(cyanomethyl)bicyclo[1.1.1]pentan-1-yl)amino)-3-methoxy-N-(5-(5-methyl-1H-pyrazol-1-yl)-1,3,4-thiadiazol-2-yl)-2-oxo-2H-pyran-6-carboxamide]
10 to 30 | 5 to 20 | – | – | COCC(C)(C)Nc1cc(C(=O)Nc2nnc(-n3nccc3C)s2)oc(=O)c1OC [Compound 76, 3-methoxy-4-((1-methoxy-2-methylpropan-2-yl)amino)-N-(5-(5-methyl-1H-pyrazol-1-yl)-1,3,4-thiadiazol-2-yl)-2-oxo-2H-pyran-6-carboxamide]
10 to 30 | 5 to 20 | – | – | COc1c(N[C@H]2CC[C@H](OC)C2)cc(C(=O)Nc2nnc(-n3nccc3C)s2)oc1=O (racemic) [Rac-109, 3-methoxy-4-(((trans)-3-methoxycyclopentyl)amino)-N-(5-(5-methyl-1H-pyrazol-1-yl)-1,3,4-thiadiazol-2-yl)-2-oxo-2H-pyran-6-carboxamide]
